Measurements reported in patent US11135209B2, “Compositions and methods for inhibiting protein kinases” (UNIVERSITY OF HOUSTON SYSTEM, priority 2017, dated 2021).

Assays:
[1] = biological target: T1, human ALK2 (Homo sapiens, UniProt Q04771); experiment: Activin-Like Kinase 2 (ALK2) enzyme assay; assay type: biochemical
T1 sequence (Q04771 21-509): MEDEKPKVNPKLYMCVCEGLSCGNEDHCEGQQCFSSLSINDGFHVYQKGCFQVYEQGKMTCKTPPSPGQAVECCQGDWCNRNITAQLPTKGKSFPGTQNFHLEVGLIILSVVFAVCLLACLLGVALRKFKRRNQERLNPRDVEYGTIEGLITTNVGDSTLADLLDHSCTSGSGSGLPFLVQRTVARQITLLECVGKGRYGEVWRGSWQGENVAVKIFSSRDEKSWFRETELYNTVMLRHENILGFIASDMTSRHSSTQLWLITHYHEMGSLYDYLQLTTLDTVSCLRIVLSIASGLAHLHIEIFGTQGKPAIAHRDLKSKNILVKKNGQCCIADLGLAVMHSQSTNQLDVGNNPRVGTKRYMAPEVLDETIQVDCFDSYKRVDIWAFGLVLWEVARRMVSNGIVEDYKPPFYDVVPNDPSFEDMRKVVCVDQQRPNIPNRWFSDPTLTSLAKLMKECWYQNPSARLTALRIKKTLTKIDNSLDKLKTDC
Description: Activin-Like Kinase 2 (ALK2) Enzyme Assay
Enzyme inhibitory activity was evaluated in a standard kinase enzyme assay by incubating human ALK2 with the protein substrate casein (1 mg/mL) and γ-^33ATP (10 μM) in the presence of various concentrations of test compounds (10 nM-100 μM). After 30 min the amount of ^33P-casein was determined.

[2] = tested on: NOD2 cellular signaling in HEK-Blue cells expressing human NOD2; experiment: NOD2 cell signaling assay (HEK-Blue, NFkB-SEAP reporter, L18-MDP stimulated); assay type: cell-based; details: read-out: IC50 (nM) HEKBlue RIPK2
Description: NOD2 Cell Signaling Assay.
HEK-Blue cells expressing human NOD2 and NFkB-SAEP reporter (Invivogen) are seeded into 96 well clear plates at 7.5×10^3 cells per well in 100 μL of DMEM media supplemented with 10% FBS and 1% antibiotic-antimycotic mix. Cells are allowed to attach for 48 h in 5% CO2 tissue culture incubator at 37° C. On the morning of the experiment, media in the wells is replaced with 100 pt of HEK-Blue detection media (Invivogen). Cells are treated with the inhibitors, diluted in DMSO (0.5 μL per well) for 15 min in 5% CO2 tissue culture incubator at 37° C. After that, cells are stimulated by the addition of 1 ng/well L18-MDP (Invivogen). Cells are incubated in 5% CO2 tissue culture incubator at 37° C. for 8 h and absorbance, corresponding to the SEAP in the media, is determined in Wallac3V plate reader (Perkin Elmer). Inhibition, %=(1−((sample signal-unstimulated and DMSO treated cells)/(L18-MDP stimulated and DMSO treated cells−unstimulated and DMSO treated cells)))*100. IC50 values are calculated based on a dose range of inhibitor concentrations using non-linear regression in GraphPad Prism software.

[3] = biological target: Recombinant RIPK2 protein (Homo sapiens, UniProt O43353); experiment: Receptor Interacting Protein Kinase 2 (RIPK2) enzyme assay (ADP-Glo); assay type: biochemical
Description: Receptor Interacting Protein Kinase 2 (RIPK2) Enzyme Assay
Recombinant RIPK2 protein (20 ng per reaction) is diluted in the reaction buffer consisting of 40 mM Tris (pH 7.5); 20 mM MgCl2; 0.1 mg/ml BSA; 50 μM DTT. Diluted protein is added to low volume white 384 well plates (2 μL/well). Inhibitors are diluted in reaction buffer (final 25% DMSO), 1 μL is added to each well and incubated 5 min at room temperature. Reactions are initiated by the addition of 2 μL of 100 μM ATP and 1 mg/ml RS repeat peptide (SignalChem) in the reaction buffer. Plates are sealed with plastic coverslips and incubated at room temperature for 2 h. Reactions are stopped by the addition of 5 μL of ADP-Glo reagent (Promega) and ADP generation reaction is performed for 40 min at room temperature. Luminescence signal is generated by the addition of 10 μL of Kinase detection reagent (Promega) for 30 min at room temperature Luminescence signals are determined using appropriate luminescence plate-reader (typical integration time 0.3-1 sec). To calculate percent inhibition, average background signal is subtracted from test well and maximal signal wells. Inhibition, %=(1−(test signal/maximal signal))*100. The percent inhibition at a specified concentration is determined or IC50 values are calculated based on a dose range of inhibitor concentrations using non-linear regression in GraphPad Prism software.

Sequence of Recombinant RIPK2 protein (O43353 whole entry, species assumed): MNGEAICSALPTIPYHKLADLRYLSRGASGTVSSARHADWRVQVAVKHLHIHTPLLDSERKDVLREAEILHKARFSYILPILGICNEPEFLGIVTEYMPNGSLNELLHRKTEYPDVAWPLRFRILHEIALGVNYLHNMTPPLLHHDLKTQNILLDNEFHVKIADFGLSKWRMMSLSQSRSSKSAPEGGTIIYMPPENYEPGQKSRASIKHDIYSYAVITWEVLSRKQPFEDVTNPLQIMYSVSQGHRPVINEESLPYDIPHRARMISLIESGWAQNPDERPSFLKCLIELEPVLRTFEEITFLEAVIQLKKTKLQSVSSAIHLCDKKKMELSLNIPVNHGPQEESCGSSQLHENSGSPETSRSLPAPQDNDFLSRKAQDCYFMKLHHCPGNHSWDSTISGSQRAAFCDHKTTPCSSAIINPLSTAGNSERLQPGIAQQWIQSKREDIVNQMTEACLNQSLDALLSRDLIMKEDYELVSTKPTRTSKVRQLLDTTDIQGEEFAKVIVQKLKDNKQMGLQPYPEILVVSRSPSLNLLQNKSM

IC50 [1] [nM] | IC50 [3] [nM] | Compound | IC50 [2] [nM]
> 10 | > 1000 | COc1cc(-c2cc(-c3ccc(N4CCNCC4)cc3)cnc2N)cc(NS(=O)(=O)Cc2ccccc2)c1C [CSLP31, N-(5-(2-Amino-5-(4-(piperazin-1-yl)phenyl)pyridin-3-yl)-3-methoxy-2-methylphenyl)-1-phenylmethanesulfonamide] | > 100
> 100000 | > 1000 | CCCS(=O)(=O)Nc1cc(-c2cc(-c3ccccc3S(C)(=O)=O)cnc2N)ccc1OC [CSLP33, N-(5-(2-Amino-5-(2-(methylsulfonyl)phenyl)pyridin-3-yl)-2-methoxyphenyl)propane-1-sulfonamide] | > 1000
> 10000 | > 100 | CCCS(=O)(=O)Nc1cc(-c2cc(-c3ccc(S(C)(=O)=O)cc3)cnc2N)ccc1OC [CSLP34] | > 1000
> 100 | > 10 | CCCS(=O)(=O)Nc1cc(-c2cc(-c3ccc(N4CCNCC4)cc3)cnc2N)cc(Cl)c1OC [CSLP35] | > 10
> 100 | > 100 | CCCS(=O)(=O)NCc1cc(-c2cc(-c3ccc(N4CCNCC4)cc3)cnc2N)ccc1OC [CSLP36, N-(5-(2-Amino-5-(4-(piperazin-1-yl)phenyl)pyridin-3-yl)-2-methoxybenzyl)propane-1-sulfonamide] | > 1000
> 100 | > 10 | CCCS(=O)(=O)Nc1cc(-c2cc(-c3ccc(N4CCNCC4)cc3)cnc2N)cc(F)c1OC [CSLP37, N-(5-(2-Amino-5-(4-(piperazin-1-yl)phenyl)pyridin-3-yl)-3-fluoro-2-methoxyphenyl)propane-1-sulfonamide] | > 10
> 10 | > 10 | CCCS(=O)(=O)Nc1cc(F)cc(-c2cc(-c3ccc(N4CCNCC4)cc3)cnc2N)c1 [CSLP38, N-(3-(2-Amino-5-(4-(piperazin-1-yl)phenyl)pyridin-3-yl)-5-fluorophenyl)propane-1-sulfonamide] | > 100
> 100 | > 100 | CCCS(=O)(=O)Nc1cc(-c2cc(-c3ccc(N4CCNCC4)cc3)cnc2N)cc(Cl)c1C [CSLP40, N-(5-(2-Amino-5-(4-(piperazin-1-yl)phenyl)pyridin-3-yl)-3-chloro-2-methylphenyl)propane-1-sulfonamide] | > 1000
> 100000 | > 100 | CCCS(=O)(=O)Nc1cc(-c2cc(-c3ccc(N4CCNCC4)cc3)cnc2N)cc(F)c1C [CSLP41, N-(5-(2-Amino-5-(4-(piperazin-1-yl)phenyl)pyridin-3-yl)-3-fluoro-2-methylphenyl)propane-1-sulfonamide] | > 100
> 100 | > 10 | CCCS(=O)(=O)Nc1cc(-c2cc(-c3ccc(N4CCNCC4)cc3)cnc2N)cc(C)c1OC [CSLP42, N-(5-(2-Amino-5-(4-(piperazin-1-yl)phenyl)pyridin-3-yl)-2-methoxy-3-methylphenyl)propane-1-sulfonamide] | > 100
> 100 | > 10 | CCCS(=O)(=O)Nc1cc(OC)cc(-c2cc(-c3cccc(S(C)(=O)=O)c3)cnc2N)c1 [CSLP44, N-(3-(2-Amino-5-(3-(methylsulfonyl)phenyl)pyridin-3-yl)-5-methoxyphenyl)propane-1-sulfonamide] | > 1000
> 100 | > 100 | CCCS(=O)(=O)Nc1cc(-c2cc(-c3ccc(N4CCNCC4)cc3)cnc2N)cc(C)c1C [CSLP45, N-(5-(2-Amino-5-(4-(piperazin-1-yl)phenyl)pyridin-3-yl)-2,3-dimethylphenyl)propane-1-sulfonamide] | > 100

Compound | IC50 [1] [nM] | IC50 [3] [nM] | IC50 [2] [nM]
CCCS(=O)(=O)Nc1cc(-c2cc(-c3ccc(N4CCNCC4)cc3)cnc2N)cc(OC)c1OC [CSLP43, N-(5-(2-Amino-5-(4-(piperazin-1-yl)phenyl)pyridin-3-yl)-2,3-dimethoxyphenyl)propane-1-sulfonamide] | > 10 | > 10 | > 1
